Test results: ChEMBL document CHEMBL1201862, “PubChem BioAssay data set” (2004)
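Interpolation was linear, between the two tested concentrations surrounding the appropriate level; five concentrations were tested over 48 hours in 96-well plates. The concentration for 50% growth inhibition is given as GI50.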 Activity calls are given as the source filed them. Rule as the data show it: active = GI50 up to about 1.1 µM and inactive = higher. Peptide text beside a SMILES is read from it.

What was measured:
Experiment in all cases: growth of human tumour cells (NCI), 48 h
[1] = system: SK-MEL-5
[2] = system: MDA-MB-231
[3] = system: UO-31
[4] = system: HCC 2998
[5] = system: PC-3
[6] = system: T47D
[7] = system: SK-OV-3
[8] = system: CCRF-CEM
[9] = system: HT-29
[10] = system: EKVX
[11] = system: SNB-19
[12] = system: SN12C
[13] = system: Malme-3M
[14] = system: NCI/ADR-RES
[15] = system: Hs-578T
[16] = system: UACC-257
[17] = system: 786-0
[18] = system: HOP-92
[19] = system: SF-295
[20] = system: IGROV-1

Row | Compound | GI50 [1] | GI50 [2] | GI50 [3] | GI50 [4] | GI50 [5] | GI50 [6] | GI50 [7] | GI50 [8] | GI50 [9] | GI50 [10] | GI50 [11] | GI50 [12] | GI50 [13] | GI50 [14] | GI50 [15] | GI50 [16] | GI50 [17] | GI50 [18] | GI50 [19] | GI50 [20]
1 | O=c1[nH][nH]c(=O)n1Cc1ccccc1 | > 100 µM (inactive) | > 100 µM (inactive) | > 100 µM (inactive) | > 100 µM (inactive) | > 100 µM (inactive) | > 100 µM (inactive) | > 100 µM (inactive) | > 100 µM (inactive) | > 100 µM (inactive) | > 100 µM (inactive) | > 100 µM (inactive) | > 100 µM (inactive) | > 100 µM (inactive) | > 100 µM (inactive) | > 100 µM (inactive) | > 100 µM (inactive) | > 100 µM (inactive) | – | – | –
2 | CCOC(=O)c1c(N2CCCC2)[nH]c(=O)c(C(c2ccc(Cl)c([N+](=O)[O-])c2)c2c(O)c(C(=O)OCC)c(N3CCCC3)[nH]c2=O)c1O | 37.8 µM (inactive) | 22 µM (inactive) | 24.7 µM (inactive) | > 100 µM (inactive) | 28.1 µM (inactive) | 28.1 µM (inactive) | 85.5 µM (inactive) | 23.6 µM (inactive) | – | 33.7 µM (inactive) | 15.5 µM (inactive) | 36.2 µM (inactive) | 38.9 µM (inactive) | 28.7 µM (inactive) | 6.55 µM (inactive) | 41.5 µM (inactive) | 27.2 µM (inactive) | 18.5 µM (inactive) | 37.6 µM (inactive) | –
3 | CCC1(CC)C(=O)N(C(=O)c2cc(OC)c(OC)c(OC)c2)N(C(=O)c2cc(OC)c(OC)c(OC)c2)C1=O | 46.1 µM (inactive) | > 50 µM (inactive) | > 50 µM (inactive) | > 50 µM (inactive) | > 50 µM (inactive) | > 50 µM (inactive) | > 50 µM (inactive) | > 50 µM (inactive) | > 50 µM (inactive) | > 50 µM (inactive) | > 50 µM (inactive) | 21.8 µM (inactive) | > 50 µM (inactive) | > 50 µM (inactive) | > 50 µM (inactive) | > 50 µM (inactive) | > 50 µM (inactive) | – | 24.8 µM (inactive) | > 50 µM (inactive)
4 | C#CCOCn1ccc(=O)[nH]c1=O | > 100 µM (inactive) | > 100 µM (inactive) | > 100 µM (inactive) | > 100 µM (inactive) | > 100 µM (inactive) | > 100 µM (inactive) | > 100 µM (inactive) | > 100 µM (inactive) | > 100 µM (inactive) | > 100 µM (inactive) | > 100 µM (inactive) | > 100 µM (inactive) | > 100 µM (inactive) | > 100 µM (inactive) | > 100 µM (inactive) | > 100 µM (inactive) | > 100 µM (inactive) | – | > 100 µM (inactive) | > 100 µM (inactive)
5 | COc1ccc(-c2nnc3n(Cc4ccccc4)c4ccccc4n3c2=O)cc1 | 53.5 µM (inactive) | 26.1 µM (inactive) | 39.9 µM (inactive) | > 100 µM (inactive) | 5.92 µM (inactive) | 45.6 µM (inactive) | – | > 100 µM (inactive) | > 100 µM (inactive) | 29.8 µM (inactive) | 23.2 µM (inactive) | 55 µM (inactive) | 51.9 µM (inactive) | 55.8 µM (inactive) | 22.1 µM (inactive) | 37.4 µM (inactive) | 10.9 µM (inactive) | 19.4 µM (inactive) | 15.9 µM (inactive) | 13.3 µM (inactive)
6 | COc1cccc(-c2cc(O)c3c(C)ccnc3n2)c1 | 0.0241 µM (active) | 0.279 µM (active) | 0.0703 µM (active) | 0.0352 µM (active) | 0.0223 µM (active) | 49 µM (inactive) | 0.0365 µM (active) | 0.029 µM (active) | 0.0233 µM (active) | 0.225 µM (active) | 0.031 µM (active) | 0.0655 µM (active) | < 0.01 µM (active) | 0.0224 µM (active) | 0.0222 µM (active) | – | 0.0449 µM (active) | – | 0.029 µM (active) | 0.0493 µM (active)
7 | O=C(CCc1ccccc1CO)NCCc1ccccc1 | > 100 µM (inactive) | > 100 µM (inactive) | 36.5 µM (inactive) | > 100 µM (inactive) | > 100 µM (inactive) | > 100 µM (inactive) | > 100 µM (inactive) | > 100 µM (inactive) | > 100 µM (inactive) | > 100 µM (inactive) | 15.9 µM (inactive) | > 100 µM (inactive) | – | > 100 µM (inactive) | 20 µM (inactive) | > 100 µM (inactive) | > 100 µM (inactive) | > 100 µM (inactive) | > 100 µM (inactive) | > 100 µM (inactive)
8 | CC(=O)NC(CS)C(=O)NC(CO)C(=O)NC(CO)C(=O)NC(Cc1c[nH]c2ccccc12)C(=O)N1CCCC1C(=O)NC(CO)C(=O)NC(Cc1c[nH]c2ccccc12)C(=O)NC(Cc1c[nH]cn1)C(=O)NC(CO)C(=O)NC(Cc1c[nH]c2ccccc12)C(=O)NCC(=O)NCC(=O)NC(C)C(=O)NC(CCC(N)=O)C(=O)NC(CCCCN)C(=O)NC(C)C(=O)NC(CCCNC(=N)N)C(=O)NC(CCCCN)C(N)=O (configuration not stated) (Ac-CSSWPSWHSWGGAQKARK-NH2; configuration not given here) | 11 µM (inactive) | 8.49 µM (inactive) | > 50 µM (inactive) | – | > 50 µM (inactive) | 11 µM (inactive) | > 50 µM (inactive) | 17.7 µM (inactive) | > 50 µM (inactive) | 28.3 µM (inactive) | > 50 µM (inactive) | 43 µM (inactive) | 10.8 µM (inactive) | > 50 µM (inactive) | 29.2 µM (inactive) | 10 µM (inactive) | 10.1 µM (inactive) | > 50 µM (inactive) | > 50 µM (inactive) | > 50 µM (inactive)
9 | NCCNC(=S)S | > 100 µM (inactive) | > 100 µM (inactive) | > 100 µM (inactive) | > 100 µM (inactive) | > 100 µM (inactive) | > 100 µM (inactive) | > 100 µM (inactive) | 22.4 µM (inactive) | 85.9 µM (inactive) | > 100 µM (inactive) | > 100 µM (inactive) | 68.9 µM (inactive) | 11.9 µM (inactive) | > 100 µM (inactive) | 7.31 µM (inactive) | > 100 µM (inactive) | 33.8 µM (inactive) | – | > 100 µM (inactive) | > 100 µM (inactive)
10 | Cc1cc2c(c(C)c1O)C(C)(C)CN2C(=O)C(C)(C)C | 25.1 µM (inactive) | 86.9 µM (inactive) | 74.5 µM (inactive) | > 100 µM (inactive) | 46.3 µM (inactive) | 56.5 µM (inactive) | > 100 µM (inactive) | 77.6 µM (inactive) | 57 µM (inactive) | > 100 µM (inactive) | > 100 µM (inactive) | > 100 µM (inactive) | – | 16.5 µM (inactive) | > 100 µM (inactive) | > 100 µM (inactive) | > 100 µM (inactive) | 20 µM (inactive) | > 100 µM (inactive) | > 100 µM (inactive)
11 | CC(Nc1ccc(Cl)c(Cl)c1)c1ccncc1 (configuration not stated) | 16.7 µM (inactive) | 16 µM (inactive) | 11.6 µM (inactive) | – | 19.4 µM (inactive) | 51.6 µM (inactive) | 11.4 µM (inactive) | 20.7 µM (inactive) | 23.7 µM (inactive) | 39.9 µM (inactive) | 22.5 µM (inactive) | 50.7 µM (inactive) | 34.3 µM (inactive) | 28.1 µM (inactive) | > 10 µM (inactive) | 26.2 µM (inactive) | 29 µM (inactive) | 18.9 µM (inactive) | 23.9 µM (inactive) | 25.4 µM (inactive)
12 | Cc1nc(O)c(O)c(CN2CCCCC2)n1 | > 100 µM (inactive) | > 100 µM (inactive) | > 100 µM (inactive) | – | > 100 µM (inactive) | > 100 µM (inactive) | > 100 µM (inactive) | > 100 µM (inactive) | > 100 µM (inactive) | > 100 µM (inactive) | > 100 µM (inactive) | > 100 µM (inactive) | > 100 µM (inactive) | > 100 µM (inactive) | > 100 µM (inactive) | > 100 µM (inactive) | > 100 µM (inactive) | > 100 µM (inactive) | > 100 µM (inactive) | > 100 µM (inactive)
13 | Cc1cc(S(=O)(=O)O)ccc1/N=N/c1c(O)ccc2ccccc12 | > 100 µM (inactive) | > 100 µM (inactive) | > 100 µM (inactive) | – | > 100 µM (inactive) | > 100 µM (inactive) | > 100 µM (inactive) | > 100 µM (inactive) | 82.2 µM (inactive) | > 100 µM (inactive) | > 100 µM (inactive) | > 100 µM (inactive) | > 100 µM (inactive) | > 100 µM (inactive) | > 100 µM (inactive) | > 100 µM (inactive) | > 100 µM (inactive) | > 100 µM (inactive) | > 100 µM (inactive) | > 100 µM (inactive)
14 | Cc1ccccc1NC(=S)N/N=C(/c1ccccc1)c1ccccn1 | 0.0664 µM (active) | < 0.01 µM (active) | 0.0266 µM (active) | 3.22 µM (inactive) | < 0.01 µM (active) | < 0.01 µM (active) | 0.0128 µM (active) | < 0.01 µM (active) | < 0.0182 µM (active) | < 0.0381 µM (active) | 1.62 µM (inactive) | 0.067 µM (active) | – | < 0.0187 µM (active) | 13.2 µM (inactive) | < 0.01 µM (active) | < 0.0214 µM (active) | 0.283 µM (active) | 0.0883 µM (active) | < 0.01 µM (active)
